Test results from patent US20160297763A1, “Heteroaryl hydroxamic acid derivatives and their use in the treatment, amelioration or prevention of a viral disease” (priority 2011, published 2016).

SMILES	melting point
Cl.O=C(NO)c1cc(N2CCCCC2)ccn1 (hydrate or solvate)	200 to 202 °C
Cc1c(-c2ccc(Cl)cc2F)sc2nc(N)[nH]c(=O)c12	320 to 340 °C
CC(C)(C)OC(=O)N1CC=C(c2ccnc(C(=O)N(O)Cc3ccccc3)c2)CC1	125 °C
Cc1c(-c2cccc(Cl)c2F)sc2nc(N)[nH]c(=O)c12	330 to 350 °C
CC(C)(C)OC(=O)N1CCC=C(c2ccnc(C(=O)N(O)Cc3ccccc3)c2)C1	128 to 134 °C
Cc1c(-c2cc(C#N)ccc2F)sc2nc(N)[nH]c(=O)c12	332 to 336 °C
O=C(NO)c1ccc(-c2ccccc2)cn1	175 to 180 °C
CCON(C)C(=O)c1ccc(-c2ccccc2)cn1	70 to 75 °C
Cc1c(-c2cccnc2)sc2nc(N)[nH]c(=O)c12	280 to 290 °C
Cc1c(-c2ccnc(Cl)c2F)sc2nc(N)[nH]c(=O)c12	330 to 350 °C
Cc1c(-c2ccccc2Cl)sc2nc(N)[nH]c(=O)c12	334 to 336 °C
CCONC(=O)c1ccc(-c2ccccc2)cn1	100 to 105 °C
Cl.O=C(NO)c1cc(NS(=O)(=O)Cc2cccc(Br)c2)ccn1	197 to 205 °C
O=C(c1cc2ccccc2cn1)N(O)Cc1ccccc1	120 to 125 °C
CN(O)C(=O)c1cc2ccccc2cn1	110 to 115 °C
O=C(c1cc(C2CCCCC2)ccn1)N(O)Cc1ccccc1	106 to 110 °C
Cc1c(-c2cccc(C#N)c2F)sc2nc(N)[nH]c(=O)c12	350 to 370 °C
Cc1c(-c2cnccn2)sc2nc(N)[nH]c(=O)c12	280 to 300 °C
Nc1nc2sc(-c3ccccc3)cc2c(=O)[nH]1	> 360 °C
O=C(NOC(=O)c1cc(N2CCCCC2)ccn1)c1cc(N2CCCCC2)ccn1	210 to 215 °C
O=C(c1cc(N2CCOCC2)ccn1)N(O)Cc1ccccc1	105 to 110 °C

SMILES	melting point
Cl.O=C(NO)c1cc(NS(=O)(=O)Cc2ccccc2F)ccn1	209 to 216 °C
CC(C)c1cccc(-c2ccc(C(=O)NO)nc2)c1	130 to 135 °C
Nc1nc2sc(-c3ccccc3)c(Cl)c2c(=O)[nH]1	> 350 °C
O=C(c1cc(C2=CCCCC2)ccn1)N(O)Cc1ccccc1	118 to 122 °C
Cc1c(-c2cc(C(F)(F)F)cc(C(F)(F)F)c2)sc2nc(N)[nH]c(=O)c12	344 to 347 °C
Cc1c(-c2c(F)ccc(Cl)c2F)sc2nc(N)[nH]c(=O)c12	330 to 350 °C
Cc1c(-c2ccc(F)c(C#N)c2)sc2nc(N)[nH]c(=O)c12	330 to 350 °C
COc1cc(-c2sc3nc(N)[nH]c(=O)c3c2C)ccc1Cl	312 to 322 °C
CCONC(=O)c1cc(NCC2CCN(Cc3ccccc3)CC2)ccn1.Cl.Cl (hydrate or solvate)	125 to 130 °C
Cl.O=C(c1cc(NS(=O)(=O)Cc2ccc(F)cc2)ccn1)N(O)Cc1ccccc1	178 to 183 °C
O=C(c1cc(N2CCC3(CC2)OCCO3)ccn1)N(O)Cc1ccccc1	98 to 102 °C
O=C(Nc1ccnc(C(=O)NO)c1)c1ccccc1	175 to 184 °C
O=C(c1cc2ccccc2cn1)N(O)CCc1ccccc1	90 to 95 °C
Cc1c(-c2cc(C#N)ccc2Cl)sc2nc(N)[nH]c(=O)c12	> 350 °C
CCONC(=O)c1cc(NCc2cccc(OCc3ccccc3)c2)ccn1.Cl	70 to 75 °C
Cc1c(-c2ccc(F)c(C#N)c2F)sc2nc(N)[nH]c(=O)c12	360 to 380 °C
Cl.O=C(NO)c1cc(NS(=O)(=O)Cc2cccc(Cl)c2)ccn1	198 to 204 °C
Cc1c(-c2ccc(F)cc2)sc2nc(N)[nH]c(=O)c12	325 to 335 °C
O=C(c1ccc(N2CCCC2)cn1)N(Cc1ccccc1)OCc1ccccc1	95 to 100 °C
O=C(c1cc(NS(=O)(=O)Cc2ccccc2)ccn1)N(O)Cc1ccccc1	190 to 195 °C
